Assay type in all cases: biochemical
In one assay the target is T1, Aβ1-40 (Homo sapiens, UniProt P05067).
T1 construct: Aβ^1-40 (AnaSpec, San Jose, Calif., lots 14212, 34862 and 34889); purchased AnaSpec, San Jose, Calif
Description: “Seeded” Thioflavin T aggregation assay for Aβ1-40. The following applies: HFIP pretreatment omitted. An excerpt:
The same procedure as described in Thioflavin T Aggregation Assay was used for “seeded” ThT aggregarion assay for Aβ^1-40 but the HFIP pretreatment was omitted. The presence of small Aβ^1-40 aggregates in the untreated batches caused aggregation to begin immediately rather than after a 12-24 hr. lag period.

A further assay deals with T2, Aβ1-42 (Homo sapiens, UniProt P05067).
T2 construct: Aβ^1-42 (AnaSpec, lot 45685); purchased AnaSpec
Description: Kinetic Thioflavin T (ThT) aggregation assay of Aβ1-42. The following applies: 20 μM Aβ1-42, kinetic ThT assay. How it is done: Aβ^1-42 (1.0 mg) was either pretreated with HFIP in the same manner as Aβ^1-40 or this step was omitted. After removing HFIP, when appropriate, Aβ^1-42 was dissolved in 1% NH3 (aq.) (200 μL) and sonicated for 1 min. The solution was diluted with Tris-HCl (5.7 mL, 20 mM, pH 7.4), the pH adjusted to 7.4 with concentrated HCl (aq.) and the solution filtered using a syringe filter (0.2 μm). Prior to use in the ThT aggregation assay, the solution was diluted with an equal volume of 8 μM Thioflavin T (ThT) in Tris-HCl (20 mM, pH 7.4, 300 mM NaCl).
(§1) Aliquots (200 μL) of Aβ^1-40, Aβ^1-42, tau441 or α-synuclein with ThT or ThS were added to wells of a black polystyrene 96-well plate, followed by 2 μL of a compound in DMSO (various concentrations), or DMSO alone (controls). For α-synuclein, sodium dodecyl sulfate solution (2.0 μL, 30 mM) was also added to each well to induce aggregation. Incubations were performed in triplicate and were taken to contain 20 μM Aβ^1-40 or Aβ^1-42, 6 μM tau441 or 4 μM α-synuclein. Plates were covered with clear polystyrene lids and incubated at 37° C. in a GENios microplate reader obtained from Tecan Group Limited, Mannedorf, Zurich. For Aβ^1-40, tau441 and α-synuclein, fluorescence readings (λex=450 nm, λem=480 nm) were taken every 15 min., after first shaking at high intensity for 15 sec. and allowing to settle for 10 sec. before each reading. For Aβ^1-42, readings were taken every 5 min.
The absorbance of each compound was measured under the conditions used during testing, though on ten times the scale (2 mL), to ensure no significant quenching interfered with the assay. This step was also used to identify whether compounds were completely soluble under testing conditions.
FIG. 7 depicts inhibition of Aβ^1-42 aggregation by various synthesized bi-aromatic compounds and positive controls morin (Ono K, Yoshiike Y, Takashima A, Hasegawa K, Naiki H, Yamada M. 2003. J Neurochem 87:172-81) and RS-0406 (Walsh D M, Townsend M, Podlisny M B, Shankar G M, Fadeeva J V, Agnaf O E, Hartley D M, Selkoe D J. 2005. J Neurosci 25:2455-62) in the kinetic ThT assay. Same conditions as for Aβ^1-40, FIG. 1. Compound concentrations were 100 μM in (A), 20 μM in (B), except for RS-0406, which was tested at 100 μM, and 20 μM in (C).

A further assay concerns the target T3, α-synuclein (Homo sapiens, UniProt P37840).
T3 construct: purchased rPeptide, Bogart, GA
Nature of the assay: α-Synuclein aggregation ThT fluorescence assay. The following applies: α-Synuclein (6 μM), 10 μM ThT, pH 7.4, 37° C., compound 100 μM or as indicated. Here is the method:
α-Synuclein (1.0 mg) was dissolved directly in Tris-HCl (11.53 mL, 20 mM, pH 7.4, 100 mM NaCl) containing DTT (5 mM) and ThT (10 μM).
as §1, with “Incubations were performed in triplicate and were taken to contain 20 μM Aβ^1-40 or Aβ^1-42, 6 μM tau441 or 4 μM α-synuclein.” left out
FIG. 12 depicts inhibition of α-synuclein aggregation by synthesized bi-aromatics and positive control morin (K, Yamada M. 2006. J Neurochem 97:105-15). Aggregation conditions: α-Synuclein (6 μM) was incubated in covered black 96-well polystyrene microplates in Tris-HCl (20 mM, pH 7.4), 10 μM ThT, 1% DMSO with compound concentrations of 100 μM (A) or as indicated (B). Plates were heated at 37° C. in a Tecan Genios microplate reader. […] Fluorescence readings: fluorescence was measured every 15 min. […]

T1 sequence (P05067 672-711 limits assumed): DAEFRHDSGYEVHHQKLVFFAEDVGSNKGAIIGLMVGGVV
T2 sequence (P05067 672-713 limits assumed): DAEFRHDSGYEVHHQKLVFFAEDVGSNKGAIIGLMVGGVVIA

In the case of `O=C(O)c1ccc2[nH]cc(-c3c[nH]c4ccc(Br)cc34)c2c1` [0c, 3-(5-bromo-indol-3-yl)-indole-5-carboxylic Acid], the “inhibition of Aβ1-40 aggregation in “seeded” ThT assay” value on Aβ1-40 is given as “inhibition”.

As to `O=c1c(O)c(-c2ccc(O)cc2O)oc2cc(O)cc(O)c12` [morin], the “inhibition of Aβ1-42 aggregation, as measured by ThT fluorescence” value at Aβ1-42 was “inhibition”. Also, the “inhibition of α-synuclein aggregation (ThT fluorescence)” value against α-synuclein was “inhibition”.

The values above are taken from patent US20070015813A1, “Treatment of protein folding disorders” (QUEEN'S UNIVERSITY AT KINGSTON, priority 2005, published 2007).
